Source: US12006278B1, “4,4′-naphthalene-1,5-diylbis(diazene-2,1-diyl)diphenol as an antioxidant compound” (KING FAISAL UNIVERSITY, priority 2023, dated 2024)

Assay: DPPH radical scavenging antioxidant test
Conditions: 517 nm; for Inhibition (radical scavenging inhibition): compound 3 μM in ethanol + 0.2 mL DPPH (0.75 mM), 30 min incubation in the dark
Experimental: The antioxidant properties of the 4,4′-naphthalene-1,5-diylbis(diazene-2,1-diyl)diphenol were studied by adding 0.2 mL DPPH (0.75 mM)) to compound 4,4′-naphthalene-1,5-diylbis(diazene-2,1-diyl)diphenol (III) (3 μM) in ethanol. After 30 min of incubation in the dark, the absorbance was read against a blank at 517 nm. Ascorbic acid (vitamin C) was used as standard antioxidants (positive control). A blank sample was prepared by 0.2 ml of DPPH in 3 ml ethanol. A negative control sample was run using ethanol instead of the sample. The radical scavenging inhibition was calculated using the following equation: […]

Structure (SMILES): O=C1O[C@H]([C@@H](O)CO)C(O)=C1O [vit c, Ascorbic acid, reference compound]
- Inhibition (radical scavenging inhibition): 74%

Structure (SMILES): Oc1ccc(/N=N\c2cccc3c(/N=N/c4ccc(O)cc4)cccc23)cc1 [Product III, 4,4′-naphthalene-1,5-diylbis(diazene-2,1-diyl)diphenol]
- antioxidant potential compared to vitamin C (result in words) (DPPH in vitro test, vitamin C as positive control): high potential as an antioxidant
- Inhibition (radical scavenging inhibition): 54%
